In patent US12540139B2, “Imidazopiperazine inhibitors of transcription activating proteins” (Board of Regents, The University of Texas System, priority 2020, dated 2026):
pIC50: −log10 of the molar value.

Columns and labels:
[1] = Metabolic stability in mouse liver microsomes; format: in vitro ADME; details: pH 7.4; CD-1 mouse liver microsomes 0.5 mg/mL, NADPH, 45 minutes, 37° C.; read-out: Half-life in liver microsomes (t1/2), Mouse
Experimental: (§1) Microsomal stability. Microsomal stability assays were conducted on a Beckmann Biomek FXp laboratory automation system. The liver microsomal incubation mixture consisted of liver microsomes (0.5 mg microsomal protein/mL), the Compound (1 μM), MgCl2 (3 mM), and EDTA (1 mM) in potassium phosphate buffer (100 mM, pH 7.4). Midazolam and Ketanserin were used as the assay control substrates. The reaction was initiated with the addition of an NADPH regeneration solution (1.3 mM NADPH) and maintained at 37° C. with shaking. At five time points ranging from 0 to 45 min, aliquots (50 μL) were removed and quenched with acetonitrile (100 μL) containing an internal standard (imipramine). After vortex and centrifugation, samples were analyzed by LC-MS/MS. Calculation of the in vitro half-lives and clearance followed literature guidelines.

[2] = In vivo pharmacokinetics after a single dose, dog; details: male, plasma, Beagle dog
Experimental: (§2) IV (intravenous) doses were formulated in 20% DMSO+60% PEG400+20% water. PO (per os) doses were formulated in 0.5% methylcellulose in water.
(§3) Dog: Male Beagle dogs (purchased from Beijing Marshall Biotechnology Co., Ltd) weighing 7-10 kg were used for studies. Animals were fasted overnight and fed 4 h postdose. Test article was administered to dogs via the cephalic vein (IV doses) or oral gavage (PO doses). Blood samples were collected via the saphenous vein or cephalic vein from all animals at predose and 0.083, 0.25, 0.5, 1, 2, 4, 8, and 24 h postdose into tubes containing the anticoagulant K2EDTA. Plasma was separated from the blood by centrifugation at 4° C. and stored at −70° C. until analysis. Test article concentrations in plasma were quantified using a liquid chromatography with tandem mass spectrometry (LC-MS/MS) method.

[3] = Metabolic stability in human liver microsomes; format: in vitro ADME; details: pH 7.4; human liver microsomes 0.5 mg/mL, NADPH, 45 minutes, 37° C.; read-out: Half-life in liver microsomes (t1/2), Human
Experimental: as §1

[4] = molecular target: T1, GST-CBP (1081-1197) bromodomain (Homo sapiens, UniProt Q92793); test: CBP AlphaScreen assay; format: binding; details: biotin-H4 (1-21) Ac-K5/8/12/16 peptide
T1 construct: The GST tagged bromodomains of CBP (1081-1197) and BRD4 (49-170) were obtained from BPS Bioscience; purchased BPS Bioscience
Experimental: (§4) Specific binding of the CBP or BRD4 bromodomain to the acetylated peptide derived from the H4 histone substrate (tetra acetylated H4 (1-21) Ac-K5/8/12/16) was measured in absence or presence of inhibitors. The GST tagged bromodomains of CBP (1081-1197) and BRD4 (49-170) were obtained from BPS Bioscience and binding to the biotinylated H4 (1-21) Ac-K5/8/12/16 (AnaSpec. 64989) was assessed via AlphaScreen technology (Perkin Elmer).
5 nM GST-CBP (1081-1197) and 20 nM biotin-H4 (1-21) Ac-K5/8/12/16 (AnaSpec. 64989) were incubated with varying concentrations of CBP inhibitors in 15 μL of buffer containing 50 mM HEPES 7.5, […], 1 mM TCEP, and 0.003% Tween-20. After 30 minutes incubation at room temperature, 15 μL of detection buffer (BPS Bio. 33006) containing 7 μg/mL of Glutathione AlphaLisa acceptor beads (Perkin Elmer AL109) and 14 μg/mL of Streptavidin donor beads (Perkin Elmer 676002) was then added to the previous mixture. The reaction was incubated for an additional 2 hours at room temperature, and the AlphaScreen signal was quantified using the Envision Multilabel plate reader. As negative control, GST-CBP (1081-1197) was incubated with the non-acetylated biotin-H4 (1-21) peptide (AnaSpec. 62555) and in presence of 0.25% of final DMSO concentration.
(§5) The binding of 2.5 nM of BRD4 (49-170) to 10 nM biotin-H4 (1-21) Ac-K5/8/12/16 (AnaSpec. 64989) was assessed following the same procedure described for the CBP assay. The standard dose response curves were fitted by Genedata Screener software using the variable-slope model: Signal=Signalnegative control+(SignalDMSO control−Signalnegative control)/(1+(IC50/Dose)^Hill slope).
(§6) Only Signal and Dose in the equation were treated as known values.

[5] = In vivo pharmacokinetics after a single dose, rat; details: male, plasma, Sprague-Dawley rat
Experimental: as §2
Rat: Male rats (SD strain, purchased from Shanghai JH Laboratory Animal Co. LTD) weighing 200-300 g were used for studies. Animals were fasted overnight and fed 4 h postdose. Water was available ad libitum for all animals. Test article was dosed via dorsal foot vein (IV doses) or oral gavage (PO doses). Blood samples were collected via tail vein from all animals at predose and at 0.083, 0.25, 0.5, 1, 2, 4, 8, and 24 h postdose into tubes containing the anticoagulant K2EDTA. Plasma was separated from the blood by centrifugation at 4° C. and stored at −70° C. until analysis. Test article concentrations in plasma were quantified using a liquid chromatography with tandem mass spectrometry (LC-MS/MS) method.

[6] = Metabolic stability in dog liver microsomes; format: in vitro ADME; details: pH 7.4, read-out: Liver microsomal clearance (t1/2), Dog
Experimental: as §1

[7] = Metabolic stability in monkey liver microsomes; format: in vitro ADME; details: pH 7.4, read-out: Liver microsomal clearance (t1/2), Monkey
Experimental: as §1

[8] = In vivo pharmacokinetics after a single dose, mouse; details: female CD-1 mice, single dose 0.2 or 0.3 mg/kg IV; for Vd: read-out: Vss
Experimental: as §2
Mouse: Female mice (CD1 strain, purchased from Shanghai JH Laboratory Animal Co. LTD) weighing 20-30 g were used for studies. Food and water were available to all animals ad libitum. The test article was dosed via tail vein (IV doses) or oral gavage (PO doses), respectively. Blood samples were collected from all animals at predose and at 0.083, 0.25, 0.5, 1, 2, 4, 8, and 24 h postdose into tubes containing the anticoagulant K2EDTA (3 animals per time point with 3 time points collected per animal). Plasma was separated from the blood by centrifugation at 4° C. and stored at −70° C. until analysis. Test article concentrations in plasma were quantified using a liquid chromatography with tandem mass spectrometry (LC-MS/MS) method.

[9] = molecular target: T2, BRD4 (49-170) bromodomain (Homo sapiens, UniProt O60885); test: BRD4 AlphaScreen assay; format: binding; details: biotin-H4 (1-21) Ac-K5/8/12/16 peptide
T2 construct: The GST tagged bromodomains of CBP (1081-1197) and BRD4 (49-170) were obtained from BPS Bioscience; purchased BPS Bioscience
Experimental: as §4, §5, §6

[10] = Metabolic stability in rat liver microsomes; format: in vitro ADME; details: pH 7.4; Sprague Dawley rat liver microsomes 0.5 mg/mL, NADPH, 45 minutes, 37° C.; read-out: Half-life in liver microsomes (t1/2), Rat
Experimental: as §1

DOHH2 cells = test: DOHH2 proliferation assay (CellTiter-Glo, day 7); format: cell-based; details: Homo sapiens, DOHH-2, 168 h; viability by CellTiter-Glo on day 7
Experimental: On day 1, 1000 DOHH2 cells were seeded to a 384-well TC plate (PerkinElmer #6007680) in 40 μL RPMI 1640 media, followed by the addition of CBP inhibitors except for column 13 where 3.3 μM staurosporine was added as negative control. DMSO was 0.1% in all the wells. The cells were lysed in and counted for viability by 40 μL CellTiter-Glo (Promega #G9243) on day 7. The luminescent signal was quantified by Envision Multilabel plate reader and the standard dose response curves were fitted by Genedata Screener software using the variable-slope model: Signal=Signalnegative control+(SignalDMSO control−Signalnegative control)/(1+(IC50/Dose)^Hill slope).
as §6

[11] = In vivo pharmacokinetics after a single dose, monkey; details: male, plasma, Cynomolgus monkey
Experimental: as §2
as §3, with “Monkey:” for “Dog:”, “Cynomolgus monkeys” for “Beagle dogs”, “Hainan Jingang Biotech.” for “Beijing Marshall Biotechnology”, “3-5” for “7-10”, “monkeys” for “dogs”, “nasal” for “oral”

[12] = mouse, plasma, read-out: Clearance (converted)

T1 sequence (Q92793 1081-1197): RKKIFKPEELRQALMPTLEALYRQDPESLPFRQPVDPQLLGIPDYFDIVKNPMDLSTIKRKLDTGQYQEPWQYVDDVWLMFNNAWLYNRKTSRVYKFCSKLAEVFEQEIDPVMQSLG

CNC(=O)N1CCn2c(C3CCOCC3)nc(-c3cccc4nc(-c5cnc(C)s5)c(C(F)F)cc34)c2C1 [Compound 1, 1-(3-(difluoromethyl)-2-(2-methylthiazol-5-yl)quinolin-5-yl)-N-methyl-3-(tetrahydro-2H-pyran-4-yl)-5,6-dihydroimidazo[1,5-a]pyrazine-7(8H)-carboxamide]
half-life at 1 μM [1]: 69.8 h | clearance ([2]; 1 mg/kg IV): 6.72 mL/min/kg | half-life ([2]; 1 mg/kg IV): 3.42 h | Vd ([2]; 1 mg/kg IV, read-out: Vss): 1.57 L/kg | AUC(0-t) ([2]; 3 mg/kg PO): 10.8 µM·h | Cmax ([2]; 3 mg/kg PO): 1870 nM | bioavailability ([2]; 3 mg/kg PO): 78.9% | half-life at 1 μM [3]: 3.97 h | pIC50 [4]: 8.52 | clearance ([5]; 1 mg/kg IV): 8.92 mL/min/kg | half-life ([5]; 1 mg/kg IV): 2.99 h | Vd ([5]; 1 mg/kg IV, read-out: Vss): 0.908 L/kg | AUC(0-t) ([5]; 3 mg/kg PO): 2.63 µM·h | Cmax ([5]; 3 mg/kg PO): 1350 nM | bioavailability ([5]; 3 mg/kg PO): 25.2% | half-life at 1 μM [6]: 1.05 h | half-life at 1 μM [7]: 0.383 h | clearance [8]: dramatic decrease | t1/2 [8]: increase | half-life ([8]; mouse, plasma): 4.47 h | clearance [8, 12]: 3.28 mL/min/kg | Vd ([8]; mouse, plasma): 0.342 L/kg | pIC50 [9]: 5.32 | half-life at 1 μM [10]: 3.22 h | pIC50 (DOHH2 cells): 7.54 | clearance ([11]; 1 mg/kg IV): 12.3 mL/min/kg | half-life ([11]; 1 mg/kg IV): 1.65 h | Vd ([11]; 1 mg/kg IV, read-out: Vss): 1.06 L/kg | AUC(0-t) ([11]; 3 mg/kg PO): 2.49 µM·h | Cmax ([11]; 3 mg/kg PO): 773 nM | bioavailability ([11]; 3 mg/kg PO): 28.2%

CC(=O)N1CCn2c(C3CCOCC3)nc(-c3cccc4nc(-c5cnc(C)s5)c(C(F)F)cc34)c2C1 [Compound 2]
pIC50 [4]: 8.70 | pIC50 [9]: 5.71 | pIC50 (DOHH2 cells): 6.67

CC(=O)N1CCn2c(C3CCOCC3)nc(-c3cccc4nc(-c5ccc(C)nc5)c(C(F)F)cc34)c2C1 [Compound 3, 1-(1-(3-(Difluoromethyl)-2-(6-methylpyridin-3-yl)quinolin-5-yl)-3-(tetrahydro-2H-pyran-4-yl)-5,6-dihydroimidazo[1,5-a]pyrazin-7(8H)-yl)ethan-1-one]
pIC50 [4]: 7.77 | pIC50 [9]: 5.13 | pIC50 (DOHH2 cells): 6.70

CNC(=O)N1CCn2c(C3CCOCC3)nc(-c3cccc4cc(-c5cnc(C)s5)ncc34)c2C1 [Compound 4, reference compound]
half-life at 1 μM [1]: 86.7 h | half-life at 1 μM [3]: 4.35 h | half-life ([8]; mouse, plasma): 0.318 h | clearance [8, 12]: 33.5 mL/min/kg | Vd ([8]; mouse, plasma): 0.822 L/kg | half-life at 1 μM [10]: 8.45 h | pIC50 (DOHH2 cells): 6.87
